Data reported in patent US9486506B2 (Novo Nordisk A/S, priority 2011, dated 2016).
Numbered stars: 1 amine (or outer) side, 2 acyl side, 3 side chain; on linkers, the order of the positions; unused ones are H or OH. Side chains are listed from the residue outwards. Peptide text beside a SMILES is read from it. * marks the point of attachment. C18 diacid = O=C(O)CCCCCCCCCCCCCCCCC(=O)*; γGlu = O=C(O)[C@H](CCC(=O)[*:2])N[*:1]; AEEA = NCCOCCOCC(=O)O

Key:
glucagon receptor = target: T1, glucagon receptor (Homo sapiens, UniProt P47871); experiment: Assay (I) Glucagon activity (cAMP biosensor, FLIPR); assay type: cell-based
T1 construct: expressed in transfected cells
T1 sequence (P47871 26-477): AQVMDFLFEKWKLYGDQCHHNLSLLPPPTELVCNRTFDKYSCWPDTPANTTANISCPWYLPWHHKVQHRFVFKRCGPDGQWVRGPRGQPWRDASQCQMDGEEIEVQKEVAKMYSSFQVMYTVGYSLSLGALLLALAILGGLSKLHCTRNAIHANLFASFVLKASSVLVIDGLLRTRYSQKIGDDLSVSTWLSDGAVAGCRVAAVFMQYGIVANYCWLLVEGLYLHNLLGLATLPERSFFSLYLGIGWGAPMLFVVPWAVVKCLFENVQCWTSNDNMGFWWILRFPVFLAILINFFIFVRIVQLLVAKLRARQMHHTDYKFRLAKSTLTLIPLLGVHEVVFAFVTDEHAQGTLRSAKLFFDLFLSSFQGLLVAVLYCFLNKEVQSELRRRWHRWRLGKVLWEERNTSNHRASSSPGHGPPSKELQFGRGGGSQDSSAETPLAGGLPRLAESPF

[1] = Assay (X) Chemical stability assessment by RP-UPLC; assay type: physicochemical; conditions: pH 8.15, 14 days at 37° C. vs 5° C., 333 μM
Description: Chemical Stability Assessment
Lyophilized samples were dissolved in buffer (see below for detailed compositions) to a final concentration of 333 μM and a pH of 8.15, and were incubated for 14 days at 5° C. and 37° C. followed by RP-UPLC analysis. Purity was defined as the area percentage of the main peak in relation to the total area of all integrated peaks in each chromatogram. Purity loss after 14 days at 37° C. was determined as the difference in purity between the samples incubated at 5° C. and 37° C., divided by the purity of the sample after incubation for 14 days at 5° C.
RP-UPLC analysis was performed using a Waters BEH130 2.1 mm×150 mm, 1.7 μm column operated at 50° C. and a flow rate of 0.4 mL/min using a mobile phase system consisting of typically A: 50 mM Phosphate, 10 w/w % Acetonitrile pH 3 and B: 80 v/v Acetonitrile. UV-detection was performed at 215 nm. The typical gradient profile used for most of the samples is shown below.
For some individual analogues eluting at substantially different retention times compared with the majority of analogues, some adjustments to the gradient profile were made to better enable purity assessment comparison across samples. Also the composition of the channel B mobile phase component was in some of the analyses exchanged for a 90 v/v % Acetonitrile solvent solution in an attempt to better handle carry-over of material from one injection to the next in the sequence. This was however compensated for by recalculating the gradient profile appropriately.
Buffer: • 50 mM Dinatriumphosphatdihydrat • 184 mM Propylenglycol • 58 mM Phenol • pH adjusted to 8.15 with H3PO4. In cases where pH was adjusted to 8.15 after re-suspension of analogues, 0.2 M NaOH was used. Assay (XI) Pharmacokinetic Study in Minipigs

Structure (SMILES) | EC50 (glucagon receptor) [nM] | Chemical stability [Purity loss/14 days 37 C.] [1] [%]
CC(C)C[C@H](NC(=O)[C@H](CC(=O)O)NC(=O)[C@H](CC(C)C)NC(=O)[C@H](Cc1ccc(O)cc1)NC(=O)[C@H](CCCNC(=N)N)NC(=O)[C@H](CO)NC(=O)[C@H](Cc1ccc(O)cc1)NC(=O)[C@H](CC(=O)O)NC(=O)[C@H](CO)NC(=O)[C@@H](NC(=O)[C@H](Cc1ccccc1)NC(=O)[C@@H](NC(=O)CNC(=O)[C@H](CCC(N)=O)NC(=O)[C@H](CO)NC(=O)[C@@H](N)Cc1c[nH]cn1)[C@@H](C)O)[C@@H](C)O)C(=O)N[C@@H](CCCNC(=N)N)C(=O)N[C@@H](CCCNC(=N)N)C(=O)N[C@@H](C)C(=O)N[C@@H](CCC(N)=O)C(=O)N[C@@H](CC(=O)O)C(=O)N[C@@H](Cc1ccccc1)C(=O)N[C@H](C(=O)N[C@@H](CCCCNC(=O)CC[C@H](NC(=O)CC[C@H](NC(=O)COCCOCCNC(=O)COCCOCCNC(=O)CC[C@H](NC(=O)CCCCCCCCCCCCCCCCC(=O)O)C(=O)O)C(=O)O)C(=O)O)C(=O)N[C@@H](Cc1c[nH]c2ccccc12)C(=O)N[C@@H](CC(C)C)C(=O)N[C@@H](CC(C)C)C(=O)N[C@H](C(=O)N[C@H](C(=O)O)[C@@H](C)O)[C@@H](C)O)C(C)C [Example 19, N^ε24-[(4S)-4-carboxy-4-[[(4S)-4-carboxy-4-[[2-[2-[2-[[2-[2-[2-[[(4S)-4-carboxy-4-(17-carboxyheptadecanoylamino)butanoyl]amino]ethoxy]ethoxy]acetyl]amino]ethoxy]ethoxy]acetyl]amino]butanoyl]amino]butanoyl]-[Arg^12,Leu^16,Lys^24,Leu^27,Thr^28]-Glucagon] (H-HSQGTFTSDYSRYLDLRRAQDFVK([γGlu-γGlu-AEEA-AEEA-γGlu-C18 diacid])WLLTT-OH) | 0.754 | 4.3
CC(C)C[C@H](NC(=O)[C@H](Cc1ccc(O)cc1)NC(=O)[C@H](CCCNC(=N)N)NC(=O)[C@H](CO)NC(=O)[C@H](Cc1ccc(O)cc1)NC(=O)[C@H](CC(=O)O)NC(=O)[C@H](CO)NC(=O)[C@@H](NC(=O)[C@H](Cc1ccccc1)NC(=O)[C@@H](NC(=O)CNC(=O)[C@H](CCC(N)=O)NC(=O)[C@H](CO)NC(=O)[C@@H](N)Cc1c[nH]cn1)[C@@H](C)O)[C@@H](C)O)C(=O)N[C@@H](CC(=O)O)C(=O)N[C@@H](CCCNC(=N)N)C(=O)N[C@@H](CCCNC(=N)N)C(=O)N[C@@H](CCCNC(=N)N)C(=O)N[C@@H](C)C(=O)N[C@@H](CCC(N)=O)C(=O)N[C@@H](CC(=O)O)C(=O)N[C@@H](Cc1ccccc1)C(=O)N[C@H](C(=O)N[C@@H](CCCCNC(=O)CC[C@H](NC(=O)CC[C@H](NC(=O)COCCOCCNC(=O)COCCOCCNC(=O)CC[C@H](NC(=O)CCCCCCCCCCCCCCCCC(=O)O)C(=O)O)C(=O)O)C(=O)O)C(=O)N[C@@H](Cc1c[nH]c2ccccc12)C(=O)N[C@@H](CC(C)C)C(=O)N[C@@H](CC(C)C)C(=O)N[C@@H](CO)C(=O)N[C@H](C(=O)O)[C@@H](C)O)C(C)C [Example 20, N^ε24-[(4S)-4-carboxy-4-[[(4S)-4-carboxy-4-[[2-[2-[2-[[2-[2-[2-[[(4S)-4-carboxy-4-(17-carboxyheptadecanoylamino)butanoyl]amino]ethoxy]ethoxy]acetyl]amino]ethoxy]ethoxy]acetyl]amino]butanoyl]amino]butanoyl]-[Arg^12,Arg^16,Lys^24,Leu^27,Ser^28]-Glucagon] (H-HSQGTFTSDYSRYLDRRRAQDFVK([γGlu-γGlu-AEEA-AEEA-γGlu-C18 diacid])WLLST-OH) | 0.355 | 10.4
CC(C)C[C@H](NC(=O)[C@H](Cc1c[nH]c2ccccc12)NC(=O)[C@H](CCCCNC(=O)CC[C@H](NC(=O)CC[C@H](NC(=O)COCCOCCNC(=O)COCCOCCNC(=O)CC[C@H](NC(=O)CCCCCCCCCCCCCCCCC(=O)O)C(=O)O)C(=O)O)C(=O)O)NC(=O)[C@@H](NC(=O)[C@H](Cc1ccccc1)NC(=O)[C@H](CC(=O)O)NC(=O)[C@H](CCC(N)=O)NC(=O)[C@H](C)NC(=O)[C@H](CCCNC(=N)N)NC(=O)[C@H](CCCNC(=N)N)NC(=O)[C@@H](NC(=O)[C@H](CC(=O)O)NC(=O)[C@H](CC(C)C)NC(=O)[C@H](Cc1ccc(O)cc1)NC(=O)[C@H](CCCNC(=N)N)NC(=O)[C@H](CO)NC(=O)[C@H](Cc1ccc(O)cc1)NC(=O)[C@H](CC(=O)O)NC(=O)[C@H](CO)NC(=O)[C@@H](NC(=O)[C@H](Cc1ccccc1)NC(=O)[C@@H](NC(=O)CNC(=O)[C@H](CCC(N)=O)NC(=O)[C@H](CO)NC(=O)[C@@H](N)Cc1c[nH]cn1)[C@@H](C)O)[C@@H](C)O)C(C)C)C(C)C)C(=O)N[C@@H](CC(C)C)C(=O)N[C@@H](CO)C(=O)N[C@H](C(=O)O)[C@@H](C)O [Example 21, N^ε24-[(4S)-4-carboxy-4-[[(4S)-4-carboxy-4-[[2-[2-[2-[[2-[2-[2-[[(4S)-4-carboxy-4-(17-carboxyheptadecanoylamino)butanoyl]amino]ethoxy]ethoxy]acetyl]amino]ethoxy]ethoxy]acetyl]amino]butanoyl]amino]butanoyl]-[Arg^12,Val^16,Lys^24,Leu^27,Ser^28]-Glucagon] (H-HSQGTFTSDYSRYLDVRRAQDFVK([γGlu-γGlu-AEEA-AEEA-γGlu-C18 diacid])WLLST-OH) | 1.32 | 2.9
CC(C)C[C@H](NC(=O)[C@H](Cc1c[nH]c2ccccc12)NC(=O)[C@H](CCCCNC(=O)CC[C@H](NC(=O)CC[C@H](NC(=O)COCCOCCNC(=O)COCCOCCNC(=O)CC[C@H](NC(=O)CCCCCCCCCCCCCCCCC(=O)O)C(=O)O)C(=O)O)C(=O)O)NC(=O)[C@@H](NC(=O)[C@H](Cc1ccccc1)NC(=O)[C@H](CC(=O)O)NC(=O)[C@H](CCC(N)=O)NC(=O)[C@H](C)NC(=O)[C@H](CCCNC(=N)N)NC(=O)[C@H](CCCNC(=N)N)NC(=O)[C@@H](NC(=O)[C@H](CC(=O)O)NC(=O)[C@H](CC(C)C)NC(=O)[C@H](Cc1ccc(O)cc1)NC(=O)[C@H](CCCNC(=N)N)NC(=O)[C@H](CO)NC(=O)[C@H](Cc1ccc(O)cc1)NC(=O)[C@H](CC(=O)O)NC(=O)[C@H](CO)NC(=O)[C@@H](NC(=O)[C@H](Cc1ccccc1)NC(=O)[C@@H](NC(=O)CNC(=O)[C@H](CCC(N)=O)NC(=O)[C@H](CO)NC(=O)[C@@H](N)Cc1c[nH]cn1)[C@@H](C)O)[C@@H](C)O)[C@@H](C)O)C(C)C)C(=O)N[C@@H](CC(C)C)C(=O)N[C@@H](CO)C(=O)N[C@H](C(=O)O)[C@@H](C)O [Example 22, N^ε24-[(4S)-4-carboxy-4-[[(4S)-4-carboxy-4-[[2-[2-[2-[[2-[2-[2-[[(4S)-4-carboxy-4-(17-carboxyheptadecanoylamino)butanoyl]amino]ethoxy]ethoxy]acetyl]amino]ethoxy]ethoxy]acetyl]amino]butanoyl]amino]butanoyl]-[Arg^12,Thr^16,Lys^24,Leu^27,Ser^28]-Glucagon] (H-HSQGTFTSDYSRYLDTRRAQDFVK([γGlu-γGlu-AEEA-AEEA-γGlu-C18 diacid])WLLST-OH) | 0.297 | 8.8
